2 compounds from ChEMBL document CHEMBL4219188, “Design, synthesis, neuroprotective, antibacterial activities and docking studies of novel thieno[2,3-d]pyrimidine-alkyne Mannich base and oxadiazole hybrids” (Bioorg Med Chem Lett, 2018) can be followed below.

In brackets after ≈: the same amount, converted by molar mass.

The nature of data set [1]: Cytotoxicity against rat PC12 cells after 24 hrs by MTT assay. Type of data set: cell-based, PC-12. The following applies: for MNTC at 24 h: read-out: MNCC.
Data set [2] concerns Staphylococcus aureus. In words: Antibacterial activity against Staphylococcus aureus after 24 hrs by UV-vis spectrophotometric method. Type of data set: functional.
The test system of data set [3] is Escherichia coli. In words: Antibacterial activity against Escherichia coli assessed as diameter of inhibition zone measured after 24 hrs by agar well diffusion method. Type of data set: functional.
Data set [4] relates to PC-12. In words: Neuroprotective activity against H2O2-induced cytotoxicity in rat PC12 cells assessed as cell viability at EC50 pretreated for 24 hrs followed by H2O2 addition by MTT assay relative to control. Type of data set: functional.
Data set [5] deals with Staphylococcus aureus. In words: Antibacterial activity against Staphylococcus aureus assessed as diameter of inhibition zone measured after 24 hrs by agar well diffusion method. Format: functional.
Data set [6] can be described thus: Cytotoxicity against rat PC12 cells assessed as cell viability at CC50 after 24 hrs by MTT assay relative to control. The conditions noted are these: read-out: Activity. Type of data set: cell-based, PC-12.
The test system of data set [7] is Pseudomonas aeruginosa. As to the kind of experiment: Antibacterial activity against Pseudomonas aeruginosa after 24 hrs by UV-vis spectrophotometric method. Format: functional.
Data set [8] relates to Escherichia coli. In words: Antibacterial activity against Escherichia coli after 24 hrs by UV-vis spectrophotometric method. Type of data set: functional.
Data set [9] deals with PC-12. In words: Neuroprotective activity against H2O2-induced cytotoxicity in rat PC12 cells assessed as increase in cell viability pretreated for 24 hrs followed by H2O2 addition by MTT assay. Type of data set: functional, cell-based.
Data set [10] concerns Pseudomonas aeruginosa. As to the kind of experiment: Antibacterial activity against Pseudomonas aeruginosa assessed as diameter of inhibition zone measured after 24 hrs by agar well diffusion method. Format: functional.
Data set [11] has as its system Bacillus subtilis. As to the kind of experiment: Antibacterial activity against Bacillus subtilis assessed as diameter of inhibition zone measured after 24 hrs by agar well diffusion method. Type of data set: functional.
Data set [12] relates to Bacillus subtilis. As to the kind of experiment: Antibacterial activity against Bacillus subtilis after 24 hrs by UV-vis spectrophotometric method. Type of data set: functional.
Data set [13] is described as follows: Cytotoxicity against rat PC12 cells assessed as cell viability at MNTC after 24 hrs by MTT assay relative to control. Type of data set: cell-based, PC-12. The following applies: read-out: Activity.

Compound `COc1ccc(N2CCN(CC#CCOC(=O)c3sc4ncnc(N5CCCCC5)c4c3C)CC2)cc1` came in with a CC50 at 24 h in [1] of 140 µg/mL (≈ 269 µM). The MNTC at 24 h in data set [1] was found to be 80 µg/mL. Moreover, the MIC in data set [2] came to 0.313 µg/mL (≈ 0.602 µM); in [7], 0.0614 µg/mL (≈ 0.118 µM); in data set [8] it was 0.622 µg/mL (≈ 1.2 µM); in data set [12] it was 0.0158 µg/mL (≈ 0.0304 µM). The “diameter of the inhibition zone (DIZ)” value is recorded as 11 mm in [3], 13 mm in data set [5], 10 mm in data set [10] and 11 mm in [11]. Further, the Activity in data set [4] was 76.16%; in data set [9], “Dose-dependent effect”. Besides, the viability at 24 h in data set [6] worked out at 49.4%; in [13] it was 99.4%. For the same compound, in data set [9], the EC50 is 35.3 µg/mL (≈ 67.9 µM).

As to `Cc1c(-c2nnc(-c3ccc(Cl)cc3)o2)sc2ncnc(N3CCOCC3)c12`, the CC50 at 24 h in data set [1] amounted to 168 µg/mL (≈ 406 µM). Further, in [1], the MNTC at 24 h amounted to 120 µg/mL. In addition, the MIC in data set [2] worked out at 0.0136 µg/mL (≈ 0.0329 µM); in [7] it was 0.0144 µg/mL (≈ 0.0348 µM); in [8] it was 0.0172 µg/mL (≈ 0.0416 µM); in [12] it was 0.0144 µg/mL (≈ 0.0348 µM). Moreover, the “diameter of the inhibition zone (DIZ)” value in data set [3] was determined as 13 mm; in data set [5], 13 mm; in data set [10] it was 18 mm; in data set [11] it was 18 mm. Further, the Activity in data set [4] was 77.18%; in data set [9] it was “Dose-dependent effect”. Besides, the viability at 24 h is 51.1% in [6] and 98.3% in data set [13]. The EC50 in data set [9] came out at 28.2 µg/mL (≈ 68 µM).
